Results from ChEMBL document CHEMBL1151617, “Antitumor agents, 65. Brusatol and cleomiscosin-A, antileukemic principles from Brucea javanica” (1984).
Converted amounts (≈) assume the structure as drawn.

What was measured:
Type in all cases: functional
[1] = tested on: P388; test: Cytotoxicity against mouse P388 cells; settings: read-out: ED50 (the source's name)
[2] = tested on: KB; test: Cytotoxicity against human KB cells; settings: read-out: ED50 (the source's name)
[3] = tested on: P388; test: In vivo antitumor activity against mouse P388 cells at 0.125 ug/kg/day, ip

| Compound | EC50 [1] | EC50 [2] | T/C [3] |
| --- | --- | --- | --- |
| COc1cc([C@H]2Oc3c(OC)cc4ccc(=O)oc4c3O[C@@H]2CO)ccc1O [CLEOMISCOSIN A] | 0.4 µg/mL (≈ 1.04 µM) | > 10 µg/mL | – |
| COC(=O)[C@]12OC[C@]34[C@H]([C@@H](O)[C@@H]1O)[C@@]1(C)CC(=O)C(O)=C(C)[C@@H]1C[C@H]3OC(=O)[C@H](OC(=O)C=C(C)C)[C@@H]24 [BRUSATOL] | – | – | 158% |
